Test results from US8889629B2, “Use of a cyclic undecapeptide for the preparation of a medicament for administration during myocardial ischaemic events” (Debiopharm International SA, priority 2005, dated 2014).

Legend:
[1] = tested on: myocardial infarction (ischemia-reperfusion); experiment: Model of ischemia-reperfusion in the mouse, post-infarction period (infarction size, ventricular remodeling, survival); format: in vivo
Procedure: After anesthesia, the mice are intubated and ventilated with a rodent ventilator. The rectal temperature is controlled and maintained at 38°-39° C. After sternotomy, the anterior interventricular artery is ligatured with an 8-0 polypropylene thread. The ischemia is visualized through the appearance of an elevated ST segment on the ECG (electrocardiogram) and the paleness of the myocardium. After 25 minutes of occlusion, the ligature is released and the reperfusion is verified by visual inspection and disappearance of the upshift in the ST segment. The thoracic wall is closed by suturing and the mice are kept in a controlled-temperature atmosphere.
One group of animals receives the carrier for [MeAla]^3-[EtVal]^4-CsA; another group is treated with [MeAla]^3-[EtVal]^4-CsA by intravenous injection (single injection at 10 mg/kg), 3 minutes before the ligature is released. The animals are monitored for 30 days and the mortality is reported for each group.
Four weeks after the reperfusion, the left ventricular remodeling is studied by Doppler echocardiography and the left ventricular ejection fraction is measured.
The zone at risk and the size of the infarction are determined in a group of animals that have undergone 25 minutes of coronary occlusion followed by 24 hours of reperfusion. After a brief reocclusion of the anterior interventricular artery, a blue dye is injected via the vena cava so as to determine the zone at risk. The animals are anesthetized and the heart is excised. The ventricle is cut into 5 thin slices and photographed. Incubation of these slices in 2,3,5-triphenyltetrazolium for 15 minutes at 37° C. makes it possible to differentiate the live (brick red) and necrosed (pale yellow) zones of the myocardium. The slices are photographed. The areas of the zones at risk and of the infarcted myocardium are determined by planimetry. The size of the infarction and the size of the zone at risk are calculated and expressed as percentage of left ventricular weight.

[2] = compared with cyclosporin A; cited from earlier work
[3] = tested on: myocardial infarction (ischemia-reperfusion); experiment: Model of ischemia-reperfusion in the rabbit, cardioprotective effect (infarction size); format: in vivo
Procedure: The aim of this study is to test the cardioprotective effect of the cyclic undecapeptide of formula (I), otherwise referred to as [MeAla]^3-[EtVal]^4-CsA, in terms of reduction in the size of the myocardial infarction measured 4 hours after the occurrence of the infarction.
After tracheotomy and ventilation with ambient air, a thoracotomy is performed in the fourth left intercostal space. A marginal branch of the left circumflex coronary artery is ligatured using a 3.0 silk suture thread. During the procedure, the temperature, the heart rate and the blood pressure are controlled. After occlusion for 30 minutes, the ligature is released (reperfusion) and the animals are kept in a controlled atmosphere for 4 hours before euthanasia.
One group of animals receives the pharmaceutical carrier for [MeAla]^3-[EtVal]^4-CsA, another group is treated with [MeAla]^3-[EtVal]^4-CsA intravenously in the form of a single injection respectively of 20 mg/kg, one minute before the ligature is released. Four hours after the reperfusion, the coronary artery is briefly reoccluded and a blue dye is injected intravenously so as to determine the zone at risk. […] The areas of the zones at risk and of the infarcted myocardium or area of necroses are determined by planimetry. The size of the infarction and the size of the zone at risk are calculated and expressed as percentage of left ventricular weight.

[4] = tested on: human immunodeficiency virus; details: cited from earlier work
[5] = tested on: MPTP of mitochondria isolated from the brain; details: Hansson et al. 2004; cited from earlier work
[6] = tested on: septic shock with myocardial dysfunction; experiment: Model of septic shock in the mouse (cecal ligature and puncture), survival; format: in vivo; details: 10 mg/kg parenteral injection just after induction of septic shock, 72 hours after induction of the sepsis (FIG. 2)
Procedure: After the mice had been anesthetized, a peritonitis is induced by cecal ligature and puncture, as follows: a median laparotomy is performed, the cecum is lifted out and a single puncture of said cecum is performed below the ileocecal valve with a 21-gauge needle. The cecum is put back into the abdominal cavity, which is then sutured in 2 planes. After the mice have come round, they are given a parenteral injection of the analgesic nalbuphine.
One group of animals receives physiological saline (control group); another group is treated with [MeAla]^3-[EtVal]^4-CsA at a rate of 10 mg/kg by parenteral injection just after surgical induction of septic shock. The animals are monitored for 4 days and the mortality is reported for each group.

Substance: [MeAla]^3-[EtVal]^4-CsA
- Left ventricular ejection fraction ± SD ([1]; mouse, 10 mg/kg i.v. 3 minutes before ligature release, Doppler echocardiography 4 weeks after reperfusion): 77 ± 6%
- mortality rate at 4 weeks ([1]; mouse, 10 mg/kg i.v. 3 minutes before ligature release, vs carrier (FIG. 1)): a decrease in the mortality rate
- decrease in the size of the infarction in the zone at risk ([1]; mouse, 10 mg/kg i.v., 24 hours after reperfusion, vs carrier (table 2)): ~50%
- Infarction size (AN/AR ± SD) ([1]; mouse, 25 min occlusion, single i.v. injection 10 mg/kg 3 minutes before ligature release, 24 hours after reperfusion): 32.1 ± 7.3%
- beneficial effects when administration is too early or too late relative to the reperfusion ([1]; same dose of active compound): not obtained
- immunosuppressive properties [2]: not having the well-known immunosuppressive properties
- decrease in the size of the infarction in the zone at risk compared with pharmaceutical carrier ([3]; 20 mg/kg i.v., 4 hours after reperfusion): ~40%
- Infarction size (AN/AR ± SD) ([3]; 30 min occlusion, single i.v. injection 20 mg/kg one minute before ligature release, measured 4 hours after reperfusion): 29 ± 6.0%
- activity in terms of inhibiting the action of the human immunodeficiency virus [4]: strong activity
- neuroprotective potential: inhibition of MPTP [5]: inhibition of MPTP
- survival rate [6]: approximately 60%
